Assay results taken from patent US20250244419A1, “INFUSION DEVICE FOR THE PREPARATION AND DELIVERY OF MRI PROBES” (The United States of America, as represented by the …, priority 2022, published 2025).

Test: Relaxation dynamics of hyperpolarized [1-13C]pyruvate (build-up time Tb, T1)
Assay type: physicochemical
Settings: for corresponding T1 value: same conditions as build-up
From the text: In addition, the relaxation dynamics of the [1-^13C]pyruvate were also studied.
In addition, relaxation dynamics at earth field and 1.8 T are about the same as a non-fluorinated SABRE catalyst T1=28.9±1.6 s and 66.5±7 s, respectively.
In addition, relaxation dynamics at earth field and 1.8 T are about the same as a non-fluorinated SABRE catalyst T1=9.0±1.9 s and 16.0±1.4 s, respectively.

[1] = NFBME / deuterated methanol mixture, catalyst of Example 4
[2] = methanol, catalyst of Example 4, DMSO co-ligand

C[13C](=O)C(=O)O [[1-^13C]pyruvate, Sodium [1-^13C]-pyruvate]
T1 at 1.8 T [1]: 16.0 ± 1.4 s
T1 at earth field [1]: 9.0 ± 1.9 s
corresponding T1 value [1]: 11.3 ± 1.3 s
T1 at 1.8 T [2]: 66.5 ± 7 s
T1 at earth field [2]: 28.9 ± 1.6 s
corresponding T1 value [2]: 16.1 ± 0.9 s
